For test [1], the system named is gp120 interaction with CD4. Conditions: Biorn et al. 2004; cited from earlier work.
In the next test the target is T1, YU2 gp120 (Human immunodeficiency virus type 1 group M subtype B, UniProt P35961).
T1 construct: immobilized YU2 gp120
The class given is binding, HIV-1. Conditions: SPR.

Description for YU2 gp120: Req. was calculated from 280 to 295 seconds in each concentration sensorgram and plotted against the concentration of the peptide.
Increasing concentrations of peptide were passed over an immobilized high density (5000 RU) surface. […] Buffer injections and controls were subtracted for all reported data. The equilibrium constant KD was calculated from the fit of direct binding to a steady state 1:1 binding model as a function of Req.

Consider `CC[C@H](C)[C@H](NC(=O)[C@@H](N)CCCNC(=N)N)C(=O)N[C@@H](CC(N)=O)C(=O)N[C@@H](CC(N)=O)C(=O)N[C@H](C(=O)N1CCC[C@H]1C(=O)N[C@@H](Cc1c[nH]c2ccccc12)C(=O)N[C@@H](CO)C(=O)N[C@@H](CCC(=O)O)C(=O)N[C@@H](C)C(=O)N[C@@H](CCSC)C(=O)N[C@@H](CCSC)C(=O)O)[C@@H](C)CC` [Peptide 1], for which the “inhibition of interaction of gp120 to CD4 (in words)” value in test [1] is reported as “micromolar affinity”.

Regarding RINNIAmpWSEAMM [Peptide 4], the “direct interaction with YU2 gp120 (in words)” value on YU2 gp120 was “no effect on gp120”.

The values above are taken from patent US8092805B2, “Dual inhibitors of HIV-1 gp-120 interactions” (priority 2004, dated 2012).
